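48-hour exposure; five concentrations; linearly interpolated endpoints. Here, GI50 denotes the concentration required for 50% inhibition of growth.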 Calls of active or inactive are those of the source. No stated cut-off is given here; in the data, active = GI50 up to about 1.1 µM and inactive = higher.
Columns and labels:
Experiment in all cases: DTP human tumour cell line panel, 48 h
[1] = test system: 786-0
[2] = test system: A498
[3] = test system: A549
[4] = test system: ACHN
[5] = test system: CAKI-1
[6] = test system: CCRF-CEM
[7] = test system: COLO 205
[8] = test system: DLD-1
[9] = test system: DMS-114
[10] = test system: DMS-273
[11] = test system: EKVX
[12] = test system: HCC 2998
[13] = test system: HCT-116
[14] = test system: HCT-15
[15] = test system: HL-60
[16] = test system: HOP-18
[17] = test system: HOP-62
[18] = test system: HT-29
[19] = test system: IGROV-1
[20] = test system: K562
[21] = test system: KM-20L2
[22] = test system: KM12
[23] = test system: LOX IMVI
[24] = test system: LXFL 529
[25] = test system: M14
[26] = test system: MOLT-4
[27] = test system: Malme-3M
[28] = test system: NCI-H226
[29] = test system: NCI-H23
[30] = test system: NCI-H460
[31] = test system: NCI-H522
[32] = test system: OVCAR-3
[33] = test system: OVCAR-4
[34] = test system: OVCAR-5
[35] = test system: OVCAR-8
[36] = test system: RPMI-8226
[37] = test system: RXF 393
[38] = test system: SF-268
[39] = test system: SF-295
[40] = test system: SF-539
[41] = test system: SK-MEL-28
[42] = test system: SK-MEL-2
[43] = test system: SK-MEL-5
[44] = test system: SK-OV-3
[45] = test system: SN12C
[46] = test system: SNB-19
[47] = test system: SNB-75
[48] = test system: SNB-78
[49] = test system: SR
[50] = test system: SW-620
[51] = test system: U-251
[52] = test system: UACC-257
[53] = test system: UACC-62
[54] = test system: UO-31
[55] = test system: M19-MEL
[56] = test system: TK-10
[57] = test system: HOP-92

O=C(COc1ccc(Br)cc1Br)N1N=C(c2ccc([N+](=O)[O-])o2)CC1(O)c1ccccc1 (stereo not given)
GI50 [1]: 15.6 µM (inactive)
GI50 [2]: 10.2 µM (inactive)
GI50 [3]: 8.65 µM (inactive)
GI50 [4]: 15.3 µM (inactive)
GI50 [5]: 14.5 µM (inactive)
GI50 [6]: 3.13 µM (inactive)
GI50 [7]: 2.7 µM (inactive)
GI50 [8]: 10.7 µM (inactive)
GI50 [9]: 6.11 µM (inactive)
GI50 [10]: 12.8 µM (inactive)
GI50 [11]: 2.79 µM (inactive)
GI50 [12]: 10.6 µM (inactive)
GI50 [13]: 11.9 µM (inactive)
GI50 [14]: 6.19 µM
GI50 [15]: 3.12 µM (inactive)
GI50 [16]: 8.75 µM (inactive)
GI50 [17]: 13.2 µM (inactive)
GI50 [18]: 13.4 µM (inactive)
GI50 [19]: 19.5 µM (inactive)
GI50 [20]: 4.7 µM (inactive)
GI50 [21]: 17.9 µM (inactive)
GI50 [22]: 17.4 µM (inactive)
GI50 [23]: 5.47 µM (inactive)
GI50 [24]: 8.73 µM (inactive)
GI50 [25]: 10.1 µM (inactive)
GI50 [26]: 2.64 µM (inactive)
GI50 [27]: 10.7 µM (inactive)
GI50 [28]: 18.2 µM (inactive)
GI50 [29]: 12.4 µM (inactive)
GI50 [30]: 6.24 µM (inactive)
GI50 [31]: 5.48 µM (inactive)
GI50 [32]: 3.93 µM (inactive)
GI50 [33]: 17 µM (inactive)
GI50 [34]: 29.3 µM (inactive)
GI50 [35]: 9.89 µM (inactive)
GI50 [36]: 2.11 µM (inactive)
GI50 [37]: 2.53 µM (inactive)
GI50 [38]: 12.3 µM (inactive)
GI50 [39]: 18.7 µM (inactive)
GI50 [40]: > 10 µM (inactive)
GI50 [41]: 12.6 µM (inactive)
GI50 [42]: 12.5 µM (inactive)
GI50 [43]: 5.45 µM (inactive)
GI50 [44]: 24.1 µM (inactive)
GI50 [45]: 12.2 µM (inactive)
GI50 [46]: 19.3 µM (inactive)
GI50 [47]: 14.1 µM (inactive)
GI50 [48]: 27.2 µM (inactive)
GI50 [49]: 2.12 µM (inactive)
GI50 [50]: 13.1 µM (inactive)
GI50 [51]: 8.73 µM (inactive)
GI50 [52]: 23.1 µM (inactive)
GI50 [53]: 4.95 µM (inactive)
GI50 [54]: 5.36 µM (inactive)

CC1(C)OC(COP2OCCO2)[C@H](COP2OCCO2)O1 (stereo not given in full)
GI50 [2]: > 100 µM (inactive)
GI50 [3]: > 100 µM (inactive)
GI50 [4]: > 100 µM (inactive)
GI50 [6]: > 100 µM (inactive)
GI50 [9]: > 100 µM (inactive)
GI50 [10]: > 100 µM (inactive)
GI50 [13]: > 100 µM (inactive)
GI50 [14]: > 100 µM
GI50 [15]: > 100 µM (inactive)
GI50 [16]: > 100 µM (inactive)
GI50 [18]: > 100 µM (inactive)
GI50 [19]: 31 µM (inactive)
GI50 [20]: > 100 µM (inactive)
GI50 [22]: > 100 µM (inactive)
GI50 [23]: > 100 µM (inactive)
GI50 [24]: > 100 µM (inactive)
GI50 [25]: > 100 µM (inactive)
GI50 [55]: > 100 µM (inactive)
GI50 [26]: > 100 µM (inactive)
GI50 [27]: > 100 µM (inactive)
GI50 [28]: > 100 µM (inactive)
GI50 [29]: > 100 µM (inactive)
GI50 [30]: > 100 µM (inactive)
GI50 [32]: > 100 µM (inactive)
GI50 [33]: > 100 µM (inactive)
GI50 [35]: > 100 µM (inactive)
GI50 [37]: > 100 µM (inactive)
GI50 [38]: > 100 µM (inactive)
GI50 [39]: > 100 µM (inactive)
GI50 [40]: > 100 µM (inactive)
GI50 [41]: > 100 µM (inactive)
GI50 [42]: > 100 µM (inactive)
GI50 [43]: > 100 µM (inactive)
GI50 [45]: > 100 µM (inactive)
GI50 [47]: > 100 µM (inactive)
GI50 [48]: > 100 µM (inactive)
GI50 [50]: > 100 µM (inactive)
GI50 [56]: > 100 µM (inactive)
GI50 [52]: > 100 µM (inactive)
GI50 [53]: > 100 µM (inactive)

CC1C[C@@]2(c3ccccc3)C(=O)CCC[C@H]2N1 (stereo not given in full)
GI50 [1]: > 100 µM (inactive)
GI50 [2]: > 100 µM (inactive)
GI50 [3]: > 100 µM (inactive)
GI50 [4]: > 100 µM (inactive)
GI50 [5]: > 100 µM (inactive)
GI50 [6]: > 100 µM (inactive)
GI50 [8]: > 100 µM (inactive)
GI50 [9]: > 100 µM (inactive)
GI50 [10]: > 100 µM (inactive)
GI50 [11]: > 100 µM (inactive)
GI50 [13]: > 100 µM (inactive)
GI50 [15]: > 100 µM (inactive)
GI50 [17]: > 100 µM (inactive)
GI50 [57]: 29.6 µM (inactive)
GI50 [18]: > 100 µM (inactive)
GI50 [19]: > 100 µM (inactive)
GI50 [20]: > 100 µM (inactive)
GI50 [21]: > 100 µM (inactive)
GI50 [22]: > 100 µM (inactive)
GI50 [24]: > 100 µM (inactive)
GI50 [25]: > 100 µM (inactive)
GI50 [55]: > 100 µM (inactive)
GI50 [26]: > 100 µM (inactive)
GI50 [27]: 16.9 µM (inactive)
GI50 [28]: > 100 µM (inactive)
GI50 [29]: > 100 µM (inactive)
GI50 [30]: > 100 µM (inactive)
GI50 [31]: > 100 µM (inactive)
GI50 [32]: > 100 µM (inactive)
GI50 [33]: > 100 µM (inactive)
GI50 [34]: > 100 µM (inactive)
GI50 [35]: > 100 µM (inactive)
GI50 [37]: > 100 µM (inactive)
GI50 [38]: > 100 µM (inactive)
GI50 [39]: > 100 µM (inactive)
GI50 [40]: > 100 µM (inactive)
GI50 [41]: > 100 µM (inactive)
GI50 [42]: > 100 µM (inactive)
GI50 [43]: > 100 µM (inactive)
GI50 [44]: > 100 µM (inactive)
GI50 [45]: > 100 µM (inactive)
GI50 [46]: > 100 µM (inactive)
GI50 [47]: > 100 µM (inactive)
GI50 [48]: > 100 µM (inactive)
GI50 [49]: > 100 µM (inactive)
GI50 [50]: > 100 µM (inactive)
GI50 [56]: > 100 µM (inactive)
GI50 [51]: > 100 µM (inactive)
GI50 [52]: > 100 µM (inactive)
GI50 [53]: > 100 µM (inactive)
GI50 [54]: > 100 µM (inactive)

From ChEMBL document CHEMBL1201862, “PubChem BioAssay data set” (2004)
